Test systems include COLO 205 colon; HCC-2998 colon; MDA-MB-231 breast; MOLT-4 leukemia; NCI-H226 lung; NCI-H522 lung; PC-3 prostate; SF-295 CNS; SF-539 CNS; SNB-75 CNS.
Holding throughout (assay): NCI-60 cell line screen, 48 h

SMILES strings stand for the structures.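 Following 48 hours of exposure in 96-well plates, responses at five concentrations were used to interpolate endpoints linearly. Abbreviation: GI50, concentration required for 50% inhibition of growth. TGI marks complete inhibition of growth.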

Regarding `COc1cc(/C=C2\CN(S(=O)(=O)c3ccc(C)cc3)C/C(=C\c3cc(CN4CCCCC4)c(O)c(OC)c3)C2=O)cc(CN2CCCCC2)c1O`, the GI50 was 1680 nM with COLO 205 colon; 1780 nM with HCC-2998 colon; 1140 nM in the assay with MDA-MB-231 breast; 918 nM in the assay with MOLT-4 leukemia; 1760 nM with NCI-H226 lung; 306 nM in the assay on NCI-H522 lung. The GI50 in the assay with PC-3 prostate is 1870 nM; in the assay with SF-295 CNS it was 2260 nM; in the assay on SF-539 CNS, 1740 nM; with SNB-75 CNS it was 1640 nM. The TGI in the assay with COLO 205 colon was found to be 3580 nM; in the assay on HCC-2998 colon, 3370 nM; in the assay on MDA-MB-231 breast, 2770 nM; with MOLT-4 leukemia it was 5040 nM; in the assay with NCI-H226 lung it was 4290 nM; in the assay on NCI-H522 lung, 1320 nM. Besides, the TGI was 4750 nM in the assay with PC-3 prostate, 5150 nM with SF-295 CNS, 3310 nM in the assay with SF-539 CNS and 3410 nM in the assay with SNB-75 CNS.
